Assay results published in paper PMC11510897 (2024).

Test system: A5-S3G (DNA, aptamer) TCGGATAAAACCGGGCGGCGTTACACTAGGCG
Assay: biolayer interferometry
Conditions: 150 mM NaCl, 2 mM MgCl2; 50 mM Tris-HCl, pH 7.5; tested at 1000 nM in aptasensor

- binding: no
Structure (SMILES): C=C1[C@@H](O)[C@@H]2O[C@]3(CC[C@H](/C=C/[C@@H](C)[C@@H]4CC(C)=C[C@@]5(O[C@H](C[C@@](C)(O)C(=O)O)CC[C@H]5O)O4)O3)CC[C@H]2O[C@@H]1[C@@H](O)C[C@H](C)[C@H]1O[C@@]2(CCCCO2)CC[C@H]1C
